Data: ChEMBL document CHEMBL4433219, “EC18 as a Tool To Understand the Role of HCN4 Channels in Mediating Hyperpolarization-Activated Current in Tissues” (ACS Med Chem Lett, 2019)

Biological target: T1, Potassium/sodium hyperpolarization-activated cyclic nucleotide-gated channel 4 (Homo sapiens) (UniProt Q9Y3Q4)
T1 sequence (whole entry): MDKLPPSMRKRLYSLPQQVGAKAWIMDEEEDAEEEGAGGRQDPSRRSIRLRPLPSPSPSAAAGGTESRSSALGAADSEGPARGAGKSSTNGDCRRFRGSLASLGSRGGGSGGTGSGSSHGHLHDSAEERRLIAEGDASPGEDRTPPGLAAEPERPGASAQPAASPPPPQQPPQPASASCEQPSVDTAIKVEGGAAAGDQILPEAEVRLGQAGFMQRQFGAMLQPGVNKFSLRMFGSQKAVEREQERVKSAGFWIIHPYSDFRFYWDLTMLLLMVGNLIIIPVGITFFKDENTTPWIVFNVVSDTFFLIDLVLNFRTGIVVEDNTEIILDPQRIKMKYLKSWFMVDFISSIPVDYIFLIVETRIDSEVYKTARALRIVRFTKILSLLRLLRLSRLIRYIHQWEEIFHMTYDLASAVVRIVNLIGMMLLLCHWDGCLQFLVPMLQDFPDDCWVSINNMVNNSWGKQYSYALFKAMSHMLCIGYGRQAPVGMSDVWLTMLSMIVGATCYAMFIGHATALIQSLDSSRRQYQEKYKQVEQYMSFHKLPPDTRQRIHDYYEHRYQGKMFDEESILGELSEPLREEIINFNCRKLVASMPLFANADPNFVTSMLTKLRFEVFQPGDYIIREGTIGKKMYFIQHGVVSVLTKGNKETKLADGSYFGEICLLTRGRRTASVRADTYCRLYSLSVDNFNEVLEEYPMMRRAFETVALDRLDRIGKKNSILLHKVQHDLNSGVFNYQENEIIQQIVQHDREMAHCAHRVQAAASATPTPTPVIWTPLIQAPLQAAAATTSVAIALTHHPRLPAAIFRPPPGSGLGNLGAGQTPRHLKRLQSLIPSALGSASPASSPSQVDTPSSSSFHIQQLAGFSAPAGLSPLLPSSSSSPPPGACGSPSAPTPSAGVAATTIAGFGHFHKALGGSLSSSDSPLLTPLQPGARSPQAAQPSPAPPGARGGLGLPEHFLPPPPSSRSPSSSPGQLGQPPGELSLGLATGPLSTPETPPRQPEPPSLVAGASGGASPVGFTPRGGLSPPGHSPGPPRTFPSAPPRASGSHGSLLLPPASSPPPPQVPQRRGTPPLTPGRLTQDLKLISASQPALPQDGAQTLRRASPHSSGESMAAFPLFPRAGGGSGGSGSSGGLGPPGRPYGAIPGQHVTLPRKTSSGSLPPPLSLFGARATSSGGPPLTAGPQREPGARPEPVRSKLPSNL
Experiment: Inhibition of human HCN4 expressed in HEK293 cells assessed as reduction in hyperpolarization activated current at 5 uM at holding potential of -80 mV by patch clamp assay relative to control
Assay type: cell-based

SMILES | inhibition
COc1ccc(CCCN(C)[C@@H]2CCC[C@H](N3CCc4cc(OC)c(OC)cc4CC3=O)C2)cc1OC (relative stereo) | 47%
COc1ccc(/C=C/CN(C)[C@@H]2CCC[C@H](N3CCc4cc(OC)c(OC)cc4CC3=O)C2)cc1OC (relative stereo) | 64%
COc1ccc(CN(Cc2ccc(OC)c(OC)c2)[C@@H]2CCC[C@H](N3CCc4cc(OC)c(OC)cc4CC3=O)C2)cc1OC | 4%
COc1ccc(CCN(C)C2CCCC(N3CCc4cc(OC)c(OC)cc4CC3=O)C2)cc1OC (single isomer, unassigned; (+)) | 46%
COc1ccc(CN(C)[C@@H]2CCC[C@H](N3CCc4cc(OC)c(OC)cc4CC3=O)C2)cc1OC (relative stereo) | 21%
COc1ccc(CCN(C)[C@@H]2CC=C[C@H](N3C=Cc4cc(OC)c(OC)cc4CC3=O)C2)cc1OC | 30%
COc1ccc(CCN(C)C2CCCC(N3CCc4cc(OC)c(OC)cc4CC3=O)C2)cc1OC (single isomer, unassigned; (-)) | 45%
COc1ccc(OCCN(C)[C@@H]2CCC[C@H](N3CCc4cc(OC)c(OC)cc4CC3=O)C2)cc1OC | 48%

Biological target: T1, Potassium/sodium hyperpolarization-activated cyclic nucleotide-gated channel 4 (Homo sapiens)
Experiment: Inhibition of human HCN4 expressed in HEK293 cells assessed as reduction in hyperpolarization activated current at 10 uM at holding potential of -80 mV by patch clamp assay relative to control
Assay type: cell-based

SMILES | inhibition
COc1ccc(CCN(C)CCCN2CCc3cc(OC)c(OC)cc3CC2=O)cc1OC | 59%
